Our source for the IC50 (inhibition of PLAP activity) values is PubChem BioAssay AID493126 (Sanford-Burnham Center for Chemical Genomics, 2011).

The target of the experiment is Alkaline phosphatase, germ cell type (Homo sapiens) (UniProt P10696). In words: PLAP enzyme activity modulators, SAR follow-up, selectivity assay for human IAP activator project, biochemical (AID 493126). The note with it: purified PLAP enzyme, counter-screen. (Counterscreens check selectivity or assay interference.)

Calls of active or inactive are those of the source. How the calls were made is not given here. Some results are limits rather than exact numbers.

Chain of Alkaline phosphatase, germ cell type (Homo sapiens) (P10696 whole entry, looked up): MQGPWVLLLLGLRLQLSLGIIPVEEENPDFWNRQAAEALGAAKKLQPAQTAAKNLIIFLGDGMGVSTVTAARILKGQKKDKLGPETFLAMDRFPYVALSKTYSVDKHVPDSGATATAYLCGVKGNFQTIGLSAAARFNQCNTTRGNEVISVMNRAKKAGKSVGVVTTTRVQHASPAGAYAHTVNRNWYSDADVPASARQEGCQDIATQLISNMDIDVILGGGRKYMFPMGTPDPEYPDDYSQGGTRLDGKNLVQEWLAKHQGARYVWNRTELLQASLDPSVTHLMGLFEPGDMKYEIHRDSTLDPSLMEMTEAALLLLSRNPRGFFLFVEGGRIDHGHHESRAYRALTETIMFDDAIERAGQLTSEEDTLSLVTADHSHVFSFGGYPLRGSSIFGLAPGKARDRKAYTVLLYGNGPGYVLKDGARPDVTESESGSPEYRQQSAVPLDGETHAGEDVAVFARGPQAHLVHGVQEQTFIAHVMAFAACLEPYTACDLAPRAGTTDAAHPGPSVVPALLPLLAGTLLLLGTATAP

On to `CC(=O)Nc1cccc(C(=O)NNC(=O)c2n[nH]c(=O)c3ccccc23)c1`, for which the IC50 (inhibition of PLAP activity) is 10.2 µM.

Consider `COc1cccc(C=NNC(=O)C2=NNC(=O)C2C)c1O` (stereo unspecified), for which the IC50 (inhibition of PLAP activity) is 8.02 µM.

With `O=C(NN=Cc1c(O)ccc2ccccc12)c1[nH]ncc1Br`, the IC50 (inhibition of PLAP activity) is > 100 µM (inactive).

Regarding `O=C(N/N=C/c1ccc2c(c1)OCO2)C(=O)N/N=C/c1ccc2c(c1)OCO2`, the IC50 (inhibition of PLAP activity) is > 100 µM (inactive).

Turning to `COC(=O)c1ccc(/C=N/NC(=O)C(=O)N/N=C/c2ccc(C(=O)OC)cc2)cc1`, the IC50 (inhibition of PLAP activity) was > 100 µM (inactive).

Consider `O=C(N/N=C/c1cc(Br)ccc1O)C(=O)N/N=C/c1cc(Br)ccc1O`, for which the IC50 (inhibition of PLAP activity) is > 100 µM (inactive).

Take `O=C(N/N=C\c1cccc(O)c1)C(=O)N/N=C/c1cccc(O)c1`: the IC50 (inhibition of PLAP activity) was 56.1 µM.

`CCOc1cccc(C=NNC(=O)c2cc(C3CC3)[nH]n2)c1O`: the IC50 (inhibition of PLAP activity) is 7.02 µM.

On to `CC1C(=O)NN=C1C(=O)NN=Cc1ccc(O)cc1O` (stereo unspecified), for which the IC50 (inhibition of PLAP activity) was 10.3 µM.

For the molecule `Cc1cc(C(=O)N/N=C\c2cc(C(C)(C)C)ccc2O)n[nH]1`, the IC50 (inhibition of PLAP activity) was 7.02 µM.

In the case of `CCCCOc1ccc(/C=N/NC(=O)C(=O)N/N=C/c2ccc(OCCCC)cc2)cc1`, the IC50 (inhibition of PLAP activity) was > 100 µM (inactive).

Consider `CCN(CC)c1ccc(/C=N/NC(=O)C(=O)N/N=C/c2ccc(N(CC)CC)cc2O)c(O)c1`, for which the IC50 (inhibition of PLAP activity) is > 100 µM (inactive).

For `COc1ccc(-c2csc(Nc3cccc4ccccc34)n2)cc1F`, the IC50 (inhibition of PLAP activity) is > 100 µM (inactive).

For `CC(C)C(=O)NC(=S)Nc1ccccc1C(=O)Nc1ccccc1`, the IC50 (inhibition of PLAP activity) is 9.56 µM.

Regarding `N#CCOc1ccccc1/C=N/NC(=O)C(=O)N/N=C/c1ccccc1OCC#N`, the IC50 (inhibition of PLAP activity) is > 100 µM (inactive).

With `OC(c1nc2ccc(F)cc2[nH]1)C(O)c1nc2ccc(F)cc2[nH]1` (stereo unspecified), the IC50 (inhibition of PLAP activity) was 6.83 µM.

Turning to `O=C(N/N=C/c1c(O)ccc2ccccc12)c1cc(-c2cccs2)[nH]n1`, the IC50 (inhibition of PLAP activity) was 31.8 µM.

On to `Cc1cc(C(=O)NN=Cc2cc(Cl)cc([N+](=O)[O-])c2O)n[nH]1`, for which the IC50 (inhibition of PLAP activity) is > 100 µM (inactive).

Regarding `Cc1cc(C(=O)NN=Cc2cccc([N+](=O)[O-])c2O)n[nH]1`, the IC50 (inhibition of PLAP activity) was > 100 µM (inactive).

For the molecule `O=C(NNC(=S)NC(=O)c1ccccc1[N+](=O)[O-])c1ccccc1O`, the IC50 (inhibition of PLAP activity) is 15 µM.

On to `CCOc1cccc(C=NNC(=O)c2cc(-c3cccn3C)n[nH]2)c1O`, for which the IC50 (inhibition of PLAP activity) was 9.86 µM.

As for `O=C1Nc2ccc(Br)cc2C12NNc1ccccc1O2` (stereo unspecified), the IC50 (inhibition of PLAP activity) was 0.87 µM.

For the molecule `COc1cc(/C=N\NC(=O)C(=O)N/N=C/c2cc(OC)c(O)c(OC)c2)cc(OC)c1O`, the IC50 (inhibition of PLAP activity) is > 100 µM (inactive).

Turning to `Cc1ccc(O)c(C=NNC(=O)c2[nH]ncc2Br)c1`, the IC50 (inhibition of PLAP activity) was 14.6 µM.

`C/C(=N\NC(=O)c1[nH]nc2c1CCc1ccccc1-2)c1ccccc1O`: the IC50 (inhibition of PLAP activity) is 7.57 µM.

For `O=C(N/N=C/c1cc(Br)ccc1O)c1cc(C2CC2)[nH]n1`, the IC50 (inhibition of PLAP activity) is 11.5 µM.

As for `COc1cc(/C=N/NC(=O)C(=O)N/N=C/c2ccc(O)c(OC)c2)ccc1O`, the IC50 (inhibition of PLAP activity) was 46.8 µM.

For `C/C(=N\NC(=O)c1cc(C)[nH]n1)c1ccc2ccccc2c1O`, the IC50 (inhibition of PLAP activity) was 8.16 µM.

Regarding `O=C(N/N=C/c1ccccc1O)c1cc(C2CC2)[nH]n1`, the IC50 (inhibition of PLAP activity) is 8.62 µM.

In the case of `CC(C)Oc1ccccc1/C=N/NC(=O)C(=O)N/N=C/c1ccccc1OC(C)C`, the IC50 (inhibition of PLAP activity) was 52.3 µM.

As to `COc1cccc(C=NNC(=O)C(=O)NN=Cc2cccc(OC)c2O)c1O`, the IC50 (inhibition of PLAP activity) is 8.61 µM.

Take `COc1ccc(/C=N/NC(=O)C(=O)N/N=C/c2ccc(OC)c(OC)c2)cc1OC`: the IC50 (inhibition of PLAP activity) is > 100 µM (inactive).

For `COc1cc(OC)cc(C(=O)NNC(=O)c2nn(C)c(=O)c3ccccc23)c1`, the IC50 (inhibition of PLAP activity) is 9.49 µM.

For the molecule `O=C(NC(=S)NNC(=O)c1ccccc1O)c1ccc(F)cc1`, the IC50 (inhibition of PLAP activity) is 11 µM.

With `O=C(N/N=C/c1c(O)ccc2ccccc12)C(=O)N/N=C/c1c(O)ccc2ccccc12`, the IC50 (inhibition of PLAP activity) was > 100 µM (inactive).

Consider `O=C(NN=Cc1ccccc1)C(=O)NN=Cc1ccccc1`, for which the IC50 (inhibition of PLAP activity) is 32.9 µM.

With `COc1cc(/C=N/NC(=O)C(=O)N/N=C/c2cc(OC)c(OC)c(OC)c2)cc(OC)c1OC`, the IC50 (inhibition of PLAP activity) was > 100 µM (inactive).

Regarding `O=C(N/N=C\c1ccc2c(c1)OCO2)C(=O)N/N=C/c1ccc2c(c1)OCO2`, the IC50 (inhibition of PLAP activity) is > 100 µM (inactive).

Turning to `O=C(N/N=C/c1ccccc1O)c1n[nH]c2c1CCC2`, the IC50 (inhibition of PLAP activity) is 8.33 µM.

Turning to `COc1ccc(-c2cc(C(=O)NN=Cc3c(O)ccc4ccccc34)[nH]n2)cc1`, the IC50 (inhibition of PLAP activity) is > 100 µM (inactive).

Take `COc1cccc(C=NNC(=O)c2[nH]nc3c2CCc2ccccc2-3)c1O`: the IC50 (inhibition of PLAP activity) is 12.1 µM.

On to `Cc1ccc(-c2cc(C(=O)NN=Cc3ccccc3O)n[nH]2)o1`, for which the IC50 (inhibition of PLAP activity) is 6.41 µM.

For the molecule `COc1cccc(C=NNC(=O)C(=O)NN=Cc2cccc(OC)c2OC)c1OC`, the IC50 (inhibition of PLAP activity) was 28.7 µM.

Take `CC(=O)Nc1ccc(/C=N/NC(=O)C(=O)N/N=C/c2ccc(NC(C)=O)cc2)cc1`: the IC50 (inhibition of PLAP activity) was > 100 µM (inactive).

Turning to `Cn1cccc1-c1cc(C(=O)NN=Cc2cc(Br)ccc2O)[nH]n1`, the IC50 (inhibition of PLAP activity) is 9.66 µM.

With `COc1cc(OC)c(OC)cc1/C=N/NC(=O)C(=O)N/N=C/c1cc(OC)c(OC)cc1OC`, the IC50 (inhibition of PLAP activity) was > 100 µM (inactive).

`O=C(CCN1C(=O)/C(=C/c2ccccc2Cl)SC1=S)NNC(=O)c1ccccc1O`: the IC50 (inhibition of PLAP activity) is 23.7 µM.

With `CN(C)c1ccc(/C=N/NC(=O)C(=O)N/N=C/c2ccc(N(C)C)cc2)cc1`, the IC50 (inhibition of PLAP activity) is > 100 µM (inactive).

For `O=C(NN=Cc1ccc(O)cc1O)C(=O)NN=Cc1ccc(O)cc1O`, the IC50 (inhibition of PLAP activity) was > 100 µM (inactive).

Regarding `O=C(N/N=C/c1ccccc1C(=O)O)C(=O)N/N=C/c1ccccc1C(=O)O`, the IC50 (inhibition of PLAP activity) was 58.1 µM.

On to `O=C(N/N=C/c1ccc(O)cc1)C(=O)N/N=C/c1ccc(O)cc1`, for which the IC50 (inhibition of PLAP activity) is > 100 µM (inactive).

In the case of `COc1cccc(C=NNC(=O)c2cc(-c3cccn3C)n[nH]2)c1O`, the IC50 (inhibition of PLAP activity) was 8.67 µM.

On to `COc1ccc(OC)c(/C=N/NC(=O)C(=O)N/N=C/c2cc(OC)ccc2OC)c1`, for which the IC50 (inhibition of PLAP activity) was 53.2 µM.

As for `Cc1cc(C(=O)N/N=C/c2cc(Br)ccc2O)n[nH]1`, the IC50 (inhibition of PLAP activity) is 10.3 µM.

Take `CCOc1cc(/C=N/NC(=O)C(=O)N/N=C/c2ccc(O)c(OCC)c2)ccc1O`: the IC50 (inhibition of PLAP activity) is > 100 µM (inactive).

Take `CC(=NNC(=O)C(=O)NN=C(C)c1cccc(O)c1)c1cccc(O)c1`: the IC50 (inhibition of PLAP activity) was > 100 µM (inactive).
